# Reference: patent publication US6444643B1, “Methods of using inhibitors of cyclophilin rotamase activity to affect neurological activity” (priority 1995, dated 2002)
# Where two headings read alike, the source gives them in different places. Numbered stars: 1 amine (or outer) side, 2 acyl side, 3 side chain; on linkers, the order of the positions; unused ones are H or OH. Square brackets hold non-standard residues; d marks the D form. Peptide text beside a SMILES is read from it. MeBmt = C/C=C/C[C@@H](C)[C@@H](O)[C@H](NC)C(=O)O; X1 = C[C@@H](O)[C@@](C)(C(=O)[*:2])N(C)[*:1]; NMeL = CN[C@@H](CC(C)C)C(=O)O; NMeV = CN[C@H](C(=O)O)C(C)C; NMeAbu = CC[C@H](NC)C(=O)O; Abu = CC[C@H](N)C(=O)O; Dha = C=C(N)C(=O)O; Sar = CNCC(=O)O
# Legend:
# cyclophilin A = cyclophilin A (Homo sapiens, UniProt P62937); assay: Inhibition of peptidyl-prolyl isomerase (rotamase) activity of cyclophilin, chymotrypsin-coupled assay; format: biochemical
# cyclophilin A, sequence (P62937 whole entry, species assumed): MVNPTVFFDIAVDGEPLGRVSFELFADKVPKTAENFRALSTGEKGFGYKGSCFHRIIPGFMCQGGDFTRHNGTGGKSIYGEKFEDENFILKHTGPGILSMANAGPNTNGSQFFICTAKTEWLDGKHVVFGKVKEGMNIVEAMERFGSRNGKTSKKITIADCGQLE
# Protocol: We evaluated the potencies of drugs in binding to cyclophilin A by examining inhibition of peptidyl prolyl-isomerase activity (Table 1).
# The inhibition of this reaction caused by the addition of different concentrations of inhibitor is determined, and the data is analyzed as a change in first-order rate constant as a function of inhibitor concentration to yield the apparent Ki values. The absorbance at 390 nm versus time is monitored for 90 sec using a spectrophotometer and the rate constants are determined from the absorbance versus. time data files.
# [1] = tested on: chick dorsal root ganglia explants; assay: Chick dorsal root ganglion cultures and neurite outgrowth; format: cell-based; conditions: for Neurotrophic Potency, Neurite Outgrowth in Chick DRG: relative to cyclosporin A, 48 hours after drug treatment
# [2] = tested on: PC12 cells and sensory neurons, namely dorsal root ganglion cells (DRGS); conditions: picomolar concentrations; cited from earlier work
# [3] = apparent Ki, substrate N-succinyl-Ala-Ala-Pro-Phe-p-nitroanilide, read-out: Ki, cyclophilin inhibition
Compound,Ki (cyclophilin A; [3]),"Neurotrophic Potency, Neurite Outgrowth in Chick DRG [1]",Ki (cyclophilin A),"EC50 ([1]; chick DRG explants, from dose-response curves (FIG. 1), read-out: ED50, the dose at which 50% of the maximal response was elicited (neurite outgrowth))",neurite outgrowth [2]
"C=C1NC(=O)[C@H](C)NC(=O)[C@H](CC(C)C)N(C)C(=O)[C@H](C(C)C)NC(=O)[C@H](CC(C)C)N(C)C(=O)CN(C)C(=O)[C@H](CC)NC(=O)[C@H]([C@H](O)[C@H](C)C/C=C/C)N(C)C(=O)[C@H](C(C)C)N(C)C(=O)[C@H](CC(C)C)N(C)C(=O)[C@H](CC(C)C)N(C)C1=O [Example 3, [dehydro-Ala]^8-CsA] (cyclo(A[Dha][NMeL][NMeL][NMeV][MeBmt][Abu][Sar][NMeL]V[NMeL]))",75 nM,+,–,–,–
"C/C=C/C[C@@H](C)[C@@H](O)[C@H]1C(=O)N[C@@H](CC)C(=O)N(C)CC(=O)N(C)[C@@H](C(C)C)C(=O)N[C@@H](C(C)C)C(=O)N(C)[C@@H](CC(C)C)C(=O)N[C@@H](C)C(=O)N[C@H](C)C(=O)N(C)[C@@H](CC(C)C)C(=O)N(C)[C@@H](CC(C)C)C(=O)N(C)[C@@H](C(C)C)C(=O)N1C [Example 4, [MeVal]^4-CsA] (cyclo([MeBmt][Abu][Sar][NMeV]V[NMeL]A[dA][NMeL][NMeL][NMeV]))",–,+++,10 nM,–,–
"C/C=C/C[C@@H](C)[C@@H](O)[C@H]1C(=O)N[C@@H](CC)C(=O)N(C)CC(=O)N(C)[C@@H](CC)C(=O)N[C@@H](C(C)C)C(=O)N(C)[C@@H](CC(C)C)C(=O)N[C@@H](C)C(=O)N[C@H](C)C(=O)N(C)[C@@H](CC(C)C)C(=O)N(C)[C@@H](CC(C)C)C(=O)N(C)[C@@H](C(C)C)C(=O)N1C [Example 5, [Me-homoAla]^4-CsA] (cyclo([MeBmt][Abu][Sar][NMeAbu]V[NMeL]A[dA][NMeL][NMeL][NMeV]))",–,+++,–,–,–
"C/C=C/C[C@@H](C)[C@@H](O)[C@H]1C(=O)N[C@@H](CC)C(=O)N(C)CC(=O)N(C)[C@@](C)([C@@H](C)O)C(=O)N[C@@H](C(C)C)C(=O)N(C)[C@@H](CC(C)C)C(=O)N[C@@H](C)C(=O)N[C@H](C)C(=O)N(C)[C@@H](CC(C)C)C(=O)N(C)[C@@H](CC(C)C)C(=O)N(C)[C@@H](C(C)C)C(=O)N1C [Example 6, [Me-(a-methyl)Thr]^4-CsA] (cyclo([MeBmt][Abu][Sar][X1]V[NMeL]A[dA][NMeL][NMeL][NMeV]))",–,+++,–,–,–
"CCCC[C@@H](C)[C@@H](O)[C@H]1C(=O)N[C@@H](CC)C(=O)N(C)CC(=O)N(C)[C@@H](CC(C)C)C(=O)N[C@@H](C(C)C)C(=O)N(C)[C@@H](CC(C)C)C(=O)N[C@@H](C)C(=O)N[C@H](C)C(=O)N(C)[C@@H](CC(C)C)C(=O)N(C)[C@@H](CC(C)C)C(=O)N(C)[C@@H](C(C)C)C(=O)N1C [Example 2, dihydro-CsA]",100 nM,+,–,–,–
"cyclosporin A [Example 1, reference compound]",–,+++,–,50 nM,stimulates neurite out growth
